Drawing on ChEMBL document CHEMBL3886965, “Naphthylurea derivatives and medical applications thereof” (2016), this text covers IC50 for six molecules.

In this assay the target is Platelet-derived growth factor receptor beta (Homo sapiens, UniProt P09619). Kind of assay: The rest of the stock solutions was storaged at ⿿20° C. after subpackage.
Chain of Platelet-derived growth factor receptor beta (P09619 whole entry): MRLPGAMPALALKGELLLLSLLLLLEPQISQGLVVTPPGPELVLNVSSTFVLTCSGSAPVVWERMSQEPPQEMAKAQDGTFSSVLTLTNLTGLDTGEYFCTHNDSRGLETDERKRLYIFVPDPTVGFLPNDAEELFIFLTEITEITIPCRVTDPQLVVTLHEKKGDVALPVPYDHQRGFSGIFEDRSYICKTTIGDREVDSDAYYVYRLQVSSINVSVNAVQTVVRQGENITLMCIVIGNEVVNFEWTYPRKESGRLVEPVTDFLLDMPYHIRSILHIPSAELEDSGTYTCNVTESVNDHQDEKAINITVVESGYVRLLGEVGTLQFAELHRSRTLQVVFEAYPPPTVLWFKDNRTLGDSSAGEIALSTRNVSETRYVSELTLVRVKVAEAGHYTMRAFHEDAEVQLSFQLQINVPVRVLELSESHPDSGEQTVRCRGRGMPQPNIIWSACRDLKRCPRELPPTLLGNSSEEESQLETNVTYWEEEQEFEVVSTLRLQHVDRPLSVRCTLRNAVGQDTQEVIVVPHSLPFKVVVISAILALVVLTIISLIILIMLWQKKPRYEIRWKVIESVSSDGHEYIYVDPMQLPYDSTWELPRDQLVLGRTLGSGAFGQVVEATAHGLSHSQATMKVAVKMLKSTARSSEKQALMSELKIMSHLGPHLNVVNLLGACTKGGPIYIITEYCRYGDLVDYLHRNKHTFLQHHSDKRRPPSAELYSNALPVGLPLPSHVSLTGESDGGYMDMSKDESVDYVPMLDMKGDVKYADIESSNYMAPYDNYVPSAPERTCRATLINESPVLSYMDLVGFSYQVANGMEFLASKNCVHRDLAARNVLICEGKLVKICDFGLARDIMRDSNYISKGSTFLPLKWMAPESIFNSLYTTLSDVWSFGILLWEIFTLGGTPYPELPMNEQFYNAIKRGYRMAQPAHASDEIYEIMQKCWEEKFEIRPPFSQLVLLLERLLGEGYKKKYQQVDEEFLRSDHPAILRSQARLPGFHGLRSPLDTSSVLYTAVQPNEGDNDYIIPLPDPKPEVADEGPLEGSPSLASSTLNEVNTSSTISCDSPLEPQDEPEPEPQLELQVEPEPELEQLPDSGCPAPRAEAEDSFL
Turning to `Cc1ccc(F)c(NC(=O)Nc2ccc(-c3ccc(OCCCN4CCCC4)c4[nH]nc(N)c34)c3ccccc23)c1`, the midpoint of inhibition, the IC50, lay at 16.3 nM.
For the molecule `Cc1cccc(NC(=O)Nc2ccc(-c3ccc(OCCCN4CCCC4)c4[nH]nc(N)c34)c3ccccc23)c1`, the midpoint of inhibition, the IC50, lay at 45.4 nM.
On to `Cc1ccc(F)c(NC(=O)Nc2ccc(-c3ccc(OCCC(C)(C)N)c4[nH]nc(N)c34)c3ccccc23)c1`, for which 106 nM corresponded to half-maximal inhibition (IC50).
As for `Cc1cccc(NC(=O)Nc2ccc(-c3cncc4[nH]nc(N)c34)c3ccccc23)c1`, the figure is 6.7 nM.
As for `Cc1ccc(F)c(NC(=O)Nc2ccc(-c3cncc4[nH]nc(N)c34)c3ccccc23)c1`, the figure is 25.4 nM.
Turning to `Cc1cccc(NC(=O)Nc2ccc(-c3ccc(OCCC(C)(C)N)c4[nH]nc(N)c34)c3ccccc23)c1`, the IC50 (as a rule, the concentration needed to halve the response being measured) was determined as 155 nM.
